Reference: patent US11319298B2 (Merck Sharp & Dohme Corp., priority 2016, dated 2022)

The compounds below were run against T1, human M4 muscarinic acetylcholine receptor (Homo sapiens, UniProt P08173) (assay: human FLIPR-based M4 PAM assay, CHO-K1 cells stably transfected with human M4 receptor and chimeric G-protein Gαqi5). Conditions: inflection point (IP) of dose response curve; acetylcholine added at 20% of maximum response; CHO-K1 human M4/Gαqi5, FLIPR Tetra.
T1 construct: expressed in transfected cells; host or cells: CHO-K1
T1 sequence (P08173 1-479): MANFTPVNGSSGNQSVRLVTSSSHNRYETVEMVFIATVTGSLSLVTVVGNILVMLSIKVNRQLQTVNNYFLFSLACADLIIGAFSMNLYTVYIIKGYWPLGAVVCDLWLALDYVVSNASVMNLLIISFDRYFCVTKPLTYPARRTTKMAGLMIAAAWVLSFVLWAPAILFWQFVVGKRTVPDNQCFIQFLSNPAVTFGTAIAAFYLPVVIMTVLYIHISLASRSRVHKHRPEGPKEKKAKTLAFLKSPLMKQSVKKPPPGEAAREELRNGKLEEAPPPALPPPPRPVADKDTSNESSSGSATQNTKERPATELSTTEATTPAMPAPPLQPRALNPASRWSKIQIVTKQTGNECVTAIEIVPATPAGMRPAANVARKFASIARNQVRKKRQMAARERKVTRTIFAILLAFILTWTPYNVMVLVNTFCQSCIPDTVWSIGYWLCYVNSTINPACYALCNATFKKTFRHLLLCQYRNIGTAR
Type: cell-based
How it was run: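 CHO-K1 cells were loaded with calcium dye at 37 °C for ~1 h. Fluorescence (ex 470–495/em 515–575 nm) was read for 4 min after test compound at increasing concentrations, then 3.5 min after acetylcholine at an EC20; sometimes a third addition at EC70 followed. The value is the inflection point of a 4-parameter logistic fit.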

Point of comparison: `COC1CCN(c2nnc(C(=O)NCc3ccncc3)cc2C)CC1` [Example 7, 6-(4-methoxypiperidin-1-yl)-5-methyl-N-(pyridin-4-ylmethyl)pyridazine-3-carboxamide], EC50 1240 nM. Against it:
- COc1ccc(OC2CCN(c3nnc(C(=O)NC4CNC(=O)C4)cc3C)CC2)cn1 (stereo not shown) [Example 145, 6-{4-[(6-methoxypyridin-3-yl)oxy]piperidin-1-yl}-5-methyl-N-(5-oxopyrrolidin-3-yl)pyridazine-3-carboxamide] — 6.4-fold lower, 194 nM
- COc1ccc(OC2CCN(c3nnc(C(=O)NCc4ccnnc4)cc3C)CC2)cn1 [Example 139, 6-{4-[(6-methoxypyridin-3-yl)oxy]piperidin-1-yl}-5-methyl-N-(pyridazin-4-ylmethyl)pyridazine-3-carboxamide] — 7-fold lower, 177 nM
- Cc1c(Cl)nc(CO)nc1N1CC[C@@H](Oc2ccc3c(cnn3C)c2)[C@@H](F)C1 (relative stereo) [Example 25, (4-chloro-6-((cis)-3-fluoro-4-((1-methyl-1H-indazol-5-yl)oxy)piperidin-1-yl)-5-methylpyrimidin-2-yl)methanol] — 16-fold lower, 78 nM
- Cc1c(Cl)nc(CO)nc1N1CCC(Oc2cccc(C#N)c2)CC1 [Example 51, 3-((1-(6-chloro-2-(hydroxymethyl)-5-methylpyrimidin-4-yl)piperidin-4-yl)oxy)benzonitrile] — 24-fold lower, 51 nM
- Cc1cc(C(=O)NC2CCCc3ccccc32)nnc1N1CCC(Oc2cccc(C#N)c2)CC1 (stereo not shown) [Example 202, 6-[4-(3-cyanophenoxy)piperidin-1-yl]-5-methyl-N-(1,2,3,4-tetrahydronaphthalne-1-yl)pyridazine-3-carboxamide] — 2.6-fold lower, 473 nM
- Cc1ncc(C)c(N2CCC(Oc3ccc(OCC(C)(C)N)nc3)CC2)n1 [Example 72, 1-((5-((1-(2,5-dimethylpyrimidin-4-yl)piperidin-4-yl)oxy)pyridin-2-yl)oxy)-2-methylpropan-2-amine] — 8.9-fold lower, 140 nM
